Measurements: PubChem BioAssay AID1508610 (The Scripps Research Institute Molecular Screening Center, 2020)
Active and inactive are the calls of the source. No rule for the calls is given here.

biological target: G-protein coupled receptor 151 (Homo sapiens) (UniProt Q8TDV0); assay: GPR151 activator potency, dose response, cell-based (AID 1508610); conditions: cell-based GPR151 activation reporter
Sequence (Q8TDV0 whole entry, looked up): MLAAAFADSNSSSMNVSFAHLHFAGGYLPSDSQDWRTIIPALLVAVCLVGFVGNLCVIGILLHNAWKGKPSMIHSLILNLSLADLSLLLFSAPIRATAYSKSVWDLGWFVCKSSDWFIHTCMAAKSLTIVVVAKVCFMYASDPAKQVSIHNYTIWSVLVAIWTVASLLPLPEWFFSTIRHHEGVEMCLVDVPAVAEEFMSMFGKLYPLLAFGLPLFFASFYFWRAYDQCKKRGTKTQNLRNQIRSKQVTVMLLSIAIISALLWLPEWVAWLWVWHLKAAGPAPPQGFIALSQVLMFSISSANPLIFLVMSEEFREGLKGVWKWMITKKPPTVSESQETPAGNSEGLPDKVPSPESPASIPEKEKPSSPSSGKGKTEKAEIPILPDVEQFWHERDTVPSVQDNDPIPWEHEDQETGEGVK

| EC50 | Structure (SMILES) |
| --- | --- |
| > 28 µM (inactive) | O=C(Nc1ncc([N+](=O)[O-])s1)c1cccs1 |
| inactive | CCOC(=O)c1c(NC(=O)C(C)C)sc(C(C)=O)c1C |
| > 28 µM (inactive) | Cc1ccc(Oc2nc3ccccn3c(=O)c2/C=C(\C#N)C(N)=O)c(C)c1 |
| > 28 µM (inactive) | OCCC1CN(Cc2ccc3nonc3c2)CCN1Cc1ccc(F)c(F)c1 (stereo unspecified) |
| > 28 µM (inactive) | C=CCN1C(=O)/C(=C/c2ccc(Cl)cc2)C(=O)NC1=S |
| > 31.6 µM (inactive) | O=C(c1ccc(CNS(=O)(=O)c2ccc(Cl)cc2)cc1)N1CCCC1 |
| > 28 µM (inactive) | O=C(O)c1ccc(COc2ccc3c(c2)CCC3)o1 |
| > 28 µM (inactive) | Cc1ccc(CCNS(=O)(=O)c2ccc3c(c2)OCCN3C)cc1 |
| > 28.4 µM (inactive) | Cc1ccc(Nc2nc(N(C)C)nc3c2cnn3C)cc1C |
| > 28 µM (inactive) | COc1ccc(-c2cnn(-c3ccc(C(=O)O)cc3)c2)cc1 |
| > 28 µM (inactive) | Cc1c(C(=O)NCc2ccco2)oc2ccc(S(=O)(=O)N(C)C3CCCCC3)cc12 |
| > 28 µM (inactive) | O=S(=O)(O)c1ccc2nc(-c3ccccc3)[nH]c2c1 |
| > 38.5 µM (inactive) | CN(C)/C=C1/C(=O)N(c2nc3ccccc3s2)N=C1C(F)(F)F |
| > 31.3 µM (inactive) | CCOC(=O)c1c(NC(=O)CN2CC(C)OC(C)C2)sc(C)c1C (stereo unspecified) |
| > 27.6 µM (inactive) | COc1ccc(-c2csc(/C(C#N)=C/Nc3ccc(F)c([N+](=O)[O-])c3)n2)cc1OC |
| > 28 µM (inactive) | COc1cccn2c(C(=O)Nc3ccc(Cl)cc3)c(C(F)(F)F)nc12 |
| > 28 µM (inactive) | COc1ccc(CCNC(=O)/C=C\C(=O)O)cc1OC |
| inactive | CCOC(=O)c1c(NC(=O)C(C)Sc2cn(C)c3ccccc23)sc2c1CCCCC2 (stereo unspecified) |
| > 28 µM (inactive) | O=C(NC1(C(F)(F)F)NC(=O)N(c2ccc(F)cc2)C1=O)c1ccncc1 (stereo unspecified) |
| > 28 µM (inactive) | COc1ccc(C(=O)/C=C\N2CCOCC2)cc1 |
| > 31.4 µM (inactive) | Cc1ccc(C(=O)Nc2ncc([N+](=O)[O-])s2)cc1 |
| > 28 µM (inactive) | Cc1cn2c(=O)c(C(=O)NOCc3cccc(C(F)(F)F)c3)cnc2s1 |
| > 28 µM (inactive) | CC1CC(=O)N(C)c2ccccc2S1 (stereo unspecified) |
| > 28 µM (inactive) | COc1ccc(/C=N/NC(=O)COc2cccc(C)c2)cc1O |
| > 28 µM (inactive) | COc1ccc(C(=O)N(C)Cc2ccccc2)cc1I |
| > 27 µM (inactive) | N=c1sc2c(n1CC(=O)c1ccccc1)CCCC2 |

| EC50 | Structure (SMILES) |
| --- | --- |
| > 39.1 µM (inactive) | O=C(COc1ccccc1Cl)Nc1nccs1 |
| > 28 µM (inactive) | CCC[C@@H]1NC(=O)[C@@H]2C[C@H](NCc3cc(C)ccc3F)CN2C1=O |
| > 28 µM (inactive) | CCCCCCCC(=O)N/N=C/c1ccccc1OC |
| > 24.3 µM (inactive) | CCc1ccccc1NC(=S)N(CCc1ccc(OC)c(OC)c1)Cc1cccnc1 |
| > 28.4 µM (inactive) | Cn1c(COc2ccc(Cl)cc2)nnc1SCC(=O)NCC(F)(F)F |
| > 28 µM (inactive) | CC(=O)Oc1ccccc1C(=O)Nc1ncc([N+](=O)[O-])s1 |
| > 39.1 µM (inactive) | CCOC(=O)c1cc(C)n(CCc2ccccc2)c1C |
| > 28 µM (inactive) | COc1cccc(OC)c1C(=O)Nc1ccc(Br)cn1 |
| inactive | CC(=O)Nc1ccc(Nc2ccnc(N3CCc4ccccc4C3)n2)cc1 |
| > 28 µM (inactive) | CCc1cc2c(cc3c(=O)n(CC(=O)NCc4ccccc4Br)ncn32)s1 |
| inactive | CC[n+]1c(/C=C2\Sc3ccc(C)cc3N2CCO)ccc2ccccc21 |
| > 28 µM (inactive) | O=C(/C=C/c1ccc(O)cc1)c1ccc(O)cc1O |
| > 27.6 µM (inactive) | Cn1c(=O)c2c(SCCC3OCCO3)nc(C3CCCCC3)nc2n(C)c1=O |
| > 28 µM (inactive) | O=C1CC(c2ccc(O)cc2)Oc2ccccc21 (stereo unspecified) |
| > 32 µM (inactive) | C=CCOC(=O)C1=C(C)N2CCSC2=C(C#N)C1c1ccco1 (stereo unspecified) |
| > 28 µM (inactive) | COc1ccc(OC)c(C(C)NC(=O)c2ccccc2Cl)c1 (stereo unspecified) |
| > 31.9 µM (inactive) | O=C(Nc1nc2ccccc2s1)c1ccccc1F |
| > 32.6 µM (inactive) | COc1ccc(/C=C/C(=O)Nc2ccccc2)cc1 |
| > 28.8 µM (inactive) | COc1ccc(Cn2nccc2N)cc1OC |
| > 40 µM (inactive) | COc1ccc2nccnc2c1[N+](=O)[O-] |
| > 28 µM (inactive) | COc1ccc(NC(=O)C2C3CCC(C3=C(C)C)C2C(=O)O)cc1 (stereo unspecified) |
| > 27.5 µM (inactive) | O=C(Nc1ncc([N+](=O)[O-])s1)c1ccc(Br)cc1F |
| > 31.2 µM (inactive) | COc1ccc(-n2nc3c(c2NC(=O)c2c(F)cccc2F)CS(=O)(=O)C3)cc1 |
| > 35.6 µM (inactive) | CC(=O)Oc1ccccc1N1C(=O)c2cccc([N+](=O)[O-])c2C1=O |
| > 28 µM (inactive) | CCN(CC)C(=O)C(=O)c1c(C)n(C)c2ccccc12 |
| > 28 µM (inactive) | C=CCN(c1ccc(C(=O)Nc2ccc(Cl)cc2)cc1)S(C)(=O)=O |

| EC50 | Structure (SMILES) |
| --- | --- |
| > 23.5 µM (inactive) | Cc1cc(Br)ccc1Nc1nc(-c2ccccc2F)nc2ccccc12 |
| > 28 µM (inactive) | Cc1nc2ccccc2n1CC(=O)N1CCc2c(nc(N3CCCC3)[nH]c2=O)C1 |
| > 28 µM (inactive) | C=CCN1C(=O)/C(=C/c2ccc(OCC(=O)O)cc2)S/C1=N/c1nccs1 |
| > 28 µM (inactive) | COC(=O)c1c(NC(=O)/C=C\C(=O)O)sc(C)c1C |
| > 26.9 µM (inactive) | Cc1cccc(-n2ncc3c(Nc4ccc(F)cc4F)ncnc32)c1 |
| > 28.7 µM (inactive) | Oc1csc(Cc2nc(-c3ccccc3F)cs2)n1 |
| > 28 µM (inactive) | O=C(CCn1nc(-c2ccccc2)c2ccccc2c1=O)NCc1ccccc1 |
| > 28 µM (inactive) | COc1ccc(Cl)cc1NC(=O)Nc1cccc([N+](=O)[O-])c1C |
| > 28 µM (inactive) | COc1ccc(N(CC(=O)Nc2ccccc2-c2ccccc2)S(C)(=O)=O)cc1 |
| inactive | COc1ccc(C2C=C(c3ccc(Cl)cc3)Nc3nc(CCCO)nn32)cc1 (stereo unspecified) |
| > 28.4 µM (inactive) | CCOc1ccc(/C=C2\SC(=S)N(CC(=O)Nc3ccc(O)cc3)C2=O)cc1 |
| > 28 µM (inactive) | CCN(CC)C(=S)SCCC(=O)NC(=O)Nc1ccc(F)cc1 |
| > 28 µM (inactive) | NC(=O)C1CCN(C(=O)c2ccc3nc(N4CCCCC4)sc3c2)CC1 |
| > 28 µM (inactive) | COC(=O)C(NC(=O)c1ccc(Br)cc1)c1ccccc1 (stereo unspecified) |
| > 28.7 µM (inactive) | COc1cccc(-c2ccc(SCC(=O)Nc3ccc4c(c3)OCCO4)nn2)c1 |
| > 28.1 µM (inactive) | O=C(NC1CC1)c1ccc2nc(-c3csc4ccccc34)sc2c1 |
| > 28 µM (inactive) | CNc1nc2c(-c3ccc(Cl)cc3)nnn2c2ccccc12 |
| > 28.1 µM (inactive) | O=C(CSc1nc(NC2CCCCC2)c2ccccc2n1)c1ccc(F)cc1 |
| > 32 µM (inactive) | COc1ccc(OC(C)C(=O)Nc2cc(C)ccc2C)cc1 (stereo unspecified) |
| > 28 µM (inactive) | Nc1nc2n(n1)C(c1ccccc1Cl)CC(c1ccc(F)cc1)N2 (stereo unspecified) |
| > 26.7 µM (inactive) | NC(=O)c1ccsc1NC(=O)/C=C/c1ccccc1 |
| > 26.1 µM (inactive) | Cc1cc2nc(-c3cccnc3Cl)[nH]c2cc1C |
| > 28 µM (inactive) | CCn1ccnc1CN1CCN(Cc2ccc(F)cc2)C(CCO)C1 (stereo unspecified) |
| > 28.2 µM (inactive) | C/C(=N\NC(=S)NCc1ccco1)c1cccc([N+](=O)[O-])c1 |
| > 28 µM (inactive) | CCOc1cc(OCC)cc(C(=O)Nc2ccc(Br)cn2)c1 |
| > 28 µM (inactive) | CC(=O)c1cccc(NC(=O)CC2S\C(=N/N=C/C=C/c3ccccc3)NC2=O)c1 (stereo unspecified) |

| EC50 | Structure (SMILES) |
| --- | --- |
| > 27.9 µM (inactive) | COc1ccc(-c2ccc(C(=O)NCCO)s2)cc1 |
| > 22.5 µM (inactive) | CCSCCOC(=O)C1=C(C)NC(=O)NC1c1ccc(OC(F)(F)F)cc1 (stereo unspecified) |
| > 25.9 µM (inactive) | O=C(Oc1ccc2cc(Br)ccc2c1)c1ccco1 |
| > 27.8 µM (inactive) | CC(=O)Nc1ccc(Nc2nc(-c3ccc(C(=O)NC4CC4)cc3)nc3nc[nH]c23)cc1 |
| > 28 µM (inactive) | Cn1c(=O)c(=O)n(C)c2cc(S(=O)(=O)N3CCN(C(=O)c4ccco4)CC3)ccc21 |
| inactive | COc1ccc(C2C3C(C)=NN=C3CC(C)(O)C2C(C)=O)cc1 (stereo unspecified) |
| > 28 µM (inactive) | CC[C@@H]1NC(=O)[C@H]2CN(C(=O)c3cccc(Cl)c3)CCN2C1=O |
| > 28 µM (inactive) | COc1ccc(NC(=O)CCC(=O)Oc2ccc(C)cc2)cc1 |
| > 28 µM (inactive) | COc1ccc(C(=O)Nc2noc3ccccc23)cc1 |
| > 28 µM (inactive) | CSc1cccc(CN2CCN(Cc3ccccc3F)C(CCO)C2)c1 (stereo unspecified) |
| > 28 µM (inactive) | Fc1ccc2nc(N3CCN(c4nc5ccccc5s4)CC3)sc2c1 |
| > 28 µM (inactive) | Cc1ccc(NC(=O)C(CC(=O)O)C2CCCO2)cc1 (stereo unspecified) |
| > 28 µM (inactive) | Fc1cccc(-c2cc3nc4c(c(N5CCOCC5)n3n2)CCC4)c1 |
| > 28.2 µM (inactive) | COc1ccc(-n2nc3c(c2NC(=O)CCC2CCCC2)CS(=O)(=O)C3)cc1 |
| > 28 µM (inactive) | CCOCCOC(=O)C1=C(C)Nc2ccc(C)cc2S1 |
| > 28 µM (inactive) | COc1ccccc1OCC(=O)Nc1ccc(S(=O)(=O)NC(C)=O)cc1 |
| > 24.2 µM (inactive) | CCOC(=O)c1ccc(NC(=O)CSc2cn(Cc3ccccc3Cl)c3ccccc23)cc1 |
| > 28 µM (inactive) | CCCCN(CCNC(=O)Cn1ncc2c1-c1cc(C)ccc1OC2)Cc1ccco1 |
| > 23.5 µM (inactive) | CCCOc1ccc(NC(=O)CC2C(=O)N(c3ccc(Cl)cc3)C(=S)N2Cc2ccncc2)cc1 (stereo unspecified) |
| > 28 µM (inactive) | Cc1ccc2c(c1)CN(CCC(=O)NCCCn1nnc3ccccc31)CC(C)O2 (stereo unspecified) |
| > 23.3 µM (inactive) | COc1cc(C2Nc3ccccc3NC3=C2C(=O)CC(c2ccc4c(c2)OCO4)C3)ccc1OC(C)=O (stereo unspecified) |
| > 20.2 µM (inactive) | Cc1c(C(=O)Nc2cc(Sc3ccc(F)cc3)cc([N+](=O)[O-])c2)sc2ncn(Cc3ccccc3F)c(=O)c12 |
| > 28 µM (inactive) | O=C(O)c1cc(N=Cc2ccco2)ccc1O |
